According to article PMC6528642, “Myo‐inositol‐1‐phosphate synthase (Ino‐1) functions as a protection mechanism in Corynebacterium glutamicum under oxidative stress” (MicrobiologyOpen, 2018):

Target: T1, Ino-1 (Corynebacterium glutamicum, UniProt Q8NLE6)
T1 construct: His6-tagged (pXMJ19-His6-ino-1), homologous expression in C. glutamicum delta-ino-1, Ni-NTA
Assay: intrinsic protein fluorescence quenching (Ex […] nm, Em […] nm)
Type: binding
Conditions: read-out: apparent K D

T1 sequence (Q8NLE6 whole entry): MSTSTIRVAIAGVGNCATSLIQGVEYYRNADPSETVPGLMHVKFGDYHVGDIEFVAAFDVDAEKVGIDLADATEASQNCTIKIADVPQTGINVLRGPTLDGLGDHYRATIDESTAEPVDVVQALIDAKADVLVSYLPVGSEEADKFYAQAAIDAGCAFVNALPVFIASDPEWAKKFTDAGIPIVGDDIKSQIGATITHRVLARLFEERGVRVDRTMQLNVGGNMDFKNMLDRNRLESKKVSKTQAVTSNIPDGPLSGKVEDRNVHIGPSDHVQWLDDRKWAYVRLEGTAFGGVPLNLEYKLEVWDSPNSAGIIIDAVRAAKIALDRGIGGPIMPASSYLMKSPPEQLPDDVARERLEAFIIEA

Kd: 4.7 ± 0.8 µM
SMILES: NC(=O)c1ccc[n+]([C@@H]2O[C@H](COP(=O)(O)OP(=O)(O)OC[C@H]3O[C@@H](n4cnc5c(N)ncnc54)[C@H](O)[C@@H]3O)[C@@H](O)[C@H]2O)c1 [NAD^+]
